Laboratory results: patent US11825838B2, “Tricyclic carboxamides for controlling arthropods” (Bayer CropScience Aktiengesellschaft, priority 2017, dated 2023)

How the values were obtained:
Format in all cases: in vivo
[1] = system: Aedes aegypti strain MONHEIM; assay: Aedes test (AEDSAE surface treatment); details: application rate 100 mg/m^2, glazed tile, exposure 30 minutes, 24 hours after contact, read-out: efficacy (mortality)
Procedure: Aedes Test (AEDSAE Surface Treatment)
(§1) Solvent: acetone+2000 ppm rapeseed oil methyl ester (RME)
(§2) To produce a suitable active compound formulation, the active compound is dissolved in the solvent (2 mg/ml). The active compound formulation is pipetted onto a glazed tile and, after it has dried off, adult mosquitoes of the species Aedes aegypti strain MONHEIM are placed onto the treated tile. The exposure time is 30 minutes.
(§3) 24 hours after contact with the treated surface, mortality in % is determined. 100% means that all mosquitoes have been killed; 0% means that none of the mosquitoes have been killed.

[2] = system: Anopheles gambiae strain RSPH (homozygot kdr); assay: Anopheles test (ANPHGB surface treatment); details: application rate 100 mg/m^2, glazed tile, exposure 30 minutes, 24 hours after contact, read-out: efficacy (mortality)
Procedure: Anopheles Test (ANPHGB Surface Treatment)
as §1
as §2, with “Anopheles gambiae” for “Aedes aegypti”, “RSPH (homozygot kdr)” for “MONHEIM”
as §3

[3] = system: Boophilus microplus; assay: Boophilus microplus injection test; details: application rate 20 μg/animal, assessed after 7 days by laying of fertile eggs
Procedure: Boophilus microplus—Injection Test
(§4) Solvent: dimethyl sulfoxide
To produce a suitable active compound preparation, 10 mg of active compound are mixed with 0.5 ml of solvent and the concentrate is diluted to the desired concentration with solvent.
1 μl of the active ingredient solution is injected into the abdomen of 5 engorged adult female cattle ticks (Boophilus microplus). The animals are transferred into dishes and kept in a climate-controlled room.
(§5) Efficacy is assessed after 7 days by laying of fertile eggs. Eggs which are not visibly fertile are stored in a climate-controlled cabinet until the larvae hatch after about 42 days. An efficacy of 100% means that none of the ticks has laid any fertile eggs; 0% means that all the eggs are fertile.

[4] = system: Ctenocephalides felis; assay: Ctenocephalides felis oral test; details: application rate 100 ppm in citrated cattle blood, after 2 days
Procedure: Ctenocephalides felis—Oral Test
as §4
To produce a suitable active ingredient formulation, 10 mg of active ingredient are mixed with 0.5 ml of dimethyl sulfoxide. Dilution with citrated cattle blood gives the desired concentration.
About 20 unfed adult cat fleas (Ctenocephalides felis) are placed into a chamber which is closed at the top and bottom with gauze. A metal cylinder whose bottom end is closed with parafilm is placed onto the chamber. The cylinder contains the blood/active ingredient formulation, which can be imbibed by the fleas through the parafilm membrane.
After 2 days, the rate of extermination in % is determined. 100% means that all of the fleas have been killed; 0% means that none of the fleas have been killed.

[5] = system: cattle ticks (Boophilus microplus) Parkhurst strain, SP-resistant; assay: Boophilus microplus dip test; details: application rate 100 ppm, assessed after 7 days by laying of fertile eggs
Procedure: Boophilus microplus—Dip Test
Test animals: cattle ticks (Boophilus microplus) Parkhurst strain, SP-resistant
as §4
10 mg of active ingredient are dissolved in 0.5 ml of dimethyl sulfoxide. To produce a suitable formulation, the active ingredient solution is diluted with water to the concentration desired in each case. This active ingredient formulation is pipetted into tubes. 8-10 engorged adult female cattle ticks (Boophilus microplus) are transferred into a further tube with holes. The tube is immersed into the active ingredient formulation, and all the ticks are completely wetted. After the liquid has run out, the ticks are transferred on filter discs into plastic dishes and stored in a climate-controlled room.
as §5

[6] = system: Anopheles funestus strain FUMOZ-R; assay: Anopheles test (ANPHFU surface treatment); details: application rate 100 mg/m^2, glazed tile, exposure 30 minutes, 24 hours after contact, read-out: efficacy (mortality)
Procedure: Anopheles Test (ANPHFU Surface Treatment)
as §1
as §2, with “Anopheles funestus” for “Aedes aegypti”, “FUMOZ-R (Hunt et al., Med Vet Entomol. 2005 September; 19(3):271-5)” for “MONHEIM”
as §3

[7] = system: Myzus persicae; assay: Myzus persicae oral test; details: application rate 4 ppm, after 5 days
Procedure: To produce a suitable active compound preparation, 1 part by weight of active compound is dissolved with the specified amounts by weight of solvent and made up to the desired concentration with water.
50 ul of the active compound preparation are transferred to microtiter plates and made up to a final volume of 200 μl with 150 μl of IPL41 insect medium (33%+15% sugar). Then the plates are sealed with parafilm through which a mixed population of the green peach aphid (Myzus persicae), which is located in a second microtiter plate, can pierce and absorb the solution.
After 5 days, the efficacy in % is determined. 100% means that all the aphids have been killed; 0% means that no aphids have been killed.

SMILES | mortality at 100 mg/m2 [1] [%] | mortality at 100 mg/m2 [2] [%] | efficacy [3] [%] | efficacy (rate of extermination) [4] [%] | efficacy [5] [%] | mortality at 100 mg/m2 [6] [%] | efficacy [7] [%]
O=C(NC1CC1)c1cc(-c2cnn(-c3c(Cl)cc(C(F)(C(F)(F)F)C(F)(F)F)cc3Cl)c2)sc1Br [I-T1-1] | 80 to 100 | 80 to 100 | 100 | 100 | 100 | 80 to 100 | 
Cc1sc(-c2cnn(-c3c(Cl)cc(C(F)(C(F)(F)F)C(F)(F)F)cc3Cl)c2)cc1C(=O)NC1CC1 [I-T1-11] |  |  | 100 | 100 | 100 |  | 90
